# Measurements from the supplement of paper PMC11061612.
# Legend:
# Experiment in all cases: combination Emax (second highest fraction inhibited in the dose matrix, 72 h); higher = more inhibition; extreme values may be limits of the assay
# [1] = system: A2780 (Ovarian Carcinoma)
# How it was run: (§1)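 Cell lines in DMEM/F12 or RPMI with 10% FBS were plated in 1536-well plates, held 24 hours at 37°C, 5% CO2, then given two-drug dose matrices for 72 hours (DMSO typically 0.2%). Viability was read by CellTiter-Glo 2.0 luminescence and scaled as inhibition from 0 (vehicle wells) to 1 (blank wells). Combination Emax is the second-highest inhibition in the matrix; Bliss excess is observed combination effect minus expected EA + EB − EA·EB, EA and EB being single-agent effects.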
# RH-41 (Rhabdomyosarcoma) = system: RH-41 (Rhabdomyosarcoma)
# How it was run: as §1
# [2] = system: G-402 (Other Solid Carcinomas)
# How it was run: as §1
# [3] = system: CA46 (Burkitt's Lymphoma)
# How it was run: as §1
# [4] = system: KYSE-140 (Esophageal Squamous Cell Carcinoma)
# How it was run: as §1
# [5] = system: LU-165 (Small Cell Lung Carcinoma)
# How it was run: as §1
# [6] = system: GCT (Other Solid Carcinomas)
# How it was run: as §1
# [7] = system: MHH-ES-1 (Ewing's Sarcoma)
# How it was run: as §1
# [8] = system: LS-411N (Colorectal Carcinoma)
# How it was run: as §1
# [9] = system: JHH-2 (Hepatocellular Carcinoma)
# How it was run: as §1
# [10] = system: CGTH-W-1 (Thyroid Gland Carcinoma)
# How it was run: as §1
# [11] = system: NCI-H441 (Lung Adenocarcinoma)
# How it was run: as §1
# [12] = system: MDA-MB-436 (Breast Carcinoma)
# How it was run: as §1
# [13] = system: HCC1395 (Breast Carcinoma)
# How it was run: as §1
# [14] = system: GA-10 (Burkitt's Lymphoma)
# How it was run: as §1
# HCC70 (Breast Carcinoma) = system: HCC70 (Breast Carcinoma)
# How it was run: as §1
# [15] = system: SW620 (Colorectal Carcinoma)
# How it was run: as §1
# [16] = system: SK-HEP-1 (Hepatocellular Carcinoma)
# How it was run: as §1
# EB2 (Burkitt's Lymphoma) = system: EB2 (Burkitt's Lymphoma)
# How it was run: as §1
# [17] = system: CESS (Acute Myeloid Leukemia)
# How it was run: as §1
SMILES,combination Emax [1],combination Emax (RH-41 (Rhabdomyosarcoma)),combination Emax [2],combination Emax [3],combination Emax [4],combination Emax [5],combination Emax [6],combination Emax [7],combination Emax [8],combination Emax [9],combination Emax [10],combination Emax [11],combination Emax [12],combination Emax [13],combination Emax [14],combination Emax (HCC70 (Breast Carcinoma)),combination Emax [15],combination Emax [16],combination Emax (EB2 (Burkitt's Lymphoma)),combination Emax [17]
"Cc1c2c(nn1C)CSCc1cc(n(C)n1)CSc1cc(c3ccccc3c1)OCCCc1c(C(=O)O)n(C)c3c-2c(Cl)ccc13 [AZD5991] + CCN(CCO)CCCOc1ccc2c(Nc3cc(CC(=O)Nc4cccc(F)c4)[nH]n3)ncnc2c1 [AZD2811] (first compound max 1 µM, 7x7, partner max 1 µM)",0.802,1,0.946,0.193,0.602,0.307,0.416,0.883,0.178,0.325,0.521,0.31,0.181,0.713,0.923,0.935,0.512,0.387,0.342,0.578
"Cc1c2c(nn1C)CSCc1cc(n(C)n1)CSc1cc(c3ccccc3c1)OCCCc1c(C(=O)O)n(C)c3c-2c(Cl)ccc13 [AZD5991] + C[C@@H]1COCCN1C2=NC(=NC(=C2)C3(CC3)[S@](=N)(=O)C)C4=C5C=CNC5=NC=C4 [AZD6738] (first compound max 1 µM, 7x7, partner max 10 µM)",0.922,1,0.995,0.449,0.925,0.321,0.411,0.837,0.772,0.703,0.389,0.39,0.334,0.918,0.998,0.967,0.543,0.354,0.8,0.958
"Cc1c2c(nn1C)CSCc1cc(n(C)n1)CSc1cc(c3ccccc3c1)OCCCc1c(C(=O)O)n(C)c3c-2c(Cl)ccc13 [AZD5991] + C[C@@H](Nc1cc(F)cc(F)c1)c1cc(C(=O)N(C)C)cc2c(=O)cc(N3CCOCC3)oc12 [AZD8186] (first compound max 1 µM, 7x7, partner max 3 µM)",0.835,0.99,0.942,0.167,0.332,0.226,0.454,0.665,0.178,0.768,0.319,0.34,0.358,0.736,0.869,1,0.206,0.356,0.467,0.554
"Cc1c2c(nn1C)CSCc1cc(n(C)n1)CSc1cc(c3ccccc3c1)OCCCc1c(C(=O)O)n(C)c3c-2c(Cl)ccc13 [AZD5991] + Cc1cc2ncnn2cc1Nc1ncc2c(n1)n(C1CCOCC1)c(=O)n2C [AZD7648] (first compound max 1 µM, 7x7, partner max 10 µM)",0.751,1,0.939,0.281,0.401,0.265,0.352,0.688,0.116,0.596,0.181,0.259,0.226,0.545,0.851,0.926,0.213,0.295,0.465,0.416
"Cc1c2c(nn1C)CSCc1cc(n(C)n1)CSc1cc(c3ccccc3c1)OCCCc1c(C(=O)O)n(C)c3c-2c(Cl)ccc13 [AZD5991] + Cn1cnc2c(F)c(Nc3ccc(Br)cc3Cl)c(C(=O)NOCCO)cc21 [Selumetinib] (first compound max 1 µM, 7x7, partner max 3 µM)",0.538,1,0.955,0.0912,0.439,0.161,0.427,0.672,0.826,0.342,0.181,0.405,0.152,0.56,0.751,0.994,0.643,0.311,0.212,0.289
"C[C@@H]1COCCN1c1cc(C2([S@](C)(=N)=O)CC2)nc(-c2ccnc3[nH]ccc23)n1 [AZD6738] + O=C(c1cc(Cc2n[nH]c(=O)c3ccccc23)ccc1F)N1CCN(C(=O)C2CC2)CC1 [Olaparib] (first compound max 10 µM, 7x7, partner max 10 µM)",0.832,0.808,0.627,0.412,0.744,0.309,0.392,0.868,0.383,0.674,0.386,0.476,0.349,0.852,0.942,0.722,0.57,0.498,0.813,0.864
"NC1(C(=O)N[C@@H](CCO)c2ccc(Cl)cc2)CCN(c2ncnc3[nH]ccc23)CC1 [Capivasertib] + CC(=O)c1c(C)c2cnc(Nc3ccc(N4CCNCC4)cn3)nc2n(C2CCCC2)c1=O [Palbociclib] (first compound max 10 µM, 7x7, partner max 10 µM)",0.77,0.945,0.605,0.411,0.78,0.429,0.718,0.5,0.628,0.608,0.349,0.348,0.224,0.395,0.97,0.657,0.473,0.673,0.566,0.708
"NC1(C(=O)N[C@@H](CCO)c2ccc(Cl)cc2)CCN(c2ncnc3[nH]ccc23)CC1 [Capivasertib] + CC(C)n1c(=O)n(C)c2cnc3cc(F)c(-c4ccc(OCCCN5CCCCC5)nc4)cc3c21 [AZD1390] (first compound max 10 µM, 7x7, partner max 0.3 µM)",0.643,0.921,0.398,0.23,0.732,0.464,0.6,0.354,0.434,0.539,0.357,0.252,0.267,0.383,0.74,0.707,0.227,0.318,0.61,0.456
"NC1(C(=O)N[C@@H](CCO)c2ccc(Cl)cc2)CCN(c2ncnc3[nH]ccc23)CC1 [Capivasertib] + CCN(CCO)CCCOc1ccc2c(Nc3cc(CC(=O)Nc4cccc(F)c4)[nH]n3)ncnc2c1 [AZD2811] (first compound max 10 µM, 7x7, partner max 1 µM)",0.812,0.943,0.658,0.362,0.829,0.47,0.636,0.665,0.557,0.587,0.354,0.317,0.264,0.455,0.918,0.745,0.328,0.533,0.653,0.654
"NC1(C(=O)N[C@@H](CCO)c2ccc(Cl)cc2)CCN(c2ncnc3[nH]ccc23)CC1 [Capivasertib] + COc1nnc2ccc(N3CCC(c4ccc(OCCN5CCN(C)C(=O)[C@H]5C)cc4)CC3)nn12 [AZD5153] (first compound max 10 µM, 7x7, partner max 1 µM)",0.873,1,0.723,0.644,0.857,0.712,0.695,0.717,0.937,0.605,0.408,0.379,0.0453,0.395,0.927,0.876,0.427,0.497,0.707,0.747
"NC1(C(=O)N[C@@H](CCO)c2ccc(Cl)cc2)CCN(c2ncnc3[nH]ccc23)CC1 [Capivasertib] + C[C@@H]1COCCN1C2=NC(=NC(=C2)C3(CC3)[S@](=N)(=O)C)C4=C5C=CNC5=NC=C4 [AZD6738] (first compound max 10 µM, 7x7, partner max 10 µM)",0.86,0.976,0.771,0.474,0.867,0.657,0.673,0.645,0.751,0.769,0.398,0.448,0.372,0.581,1,0.817,0.545,0.318,0.831,0.91
"NC1(C(=O)N[C@@H](CCO)c2ccc(Cl)cc2)CCN(c2ncnc3[nH]ccc23)CC1 [Capivasertib] + Cn1cnc2c(F)c(Nc3ccc(Br)cc3Cl)c(C(=O)NOCCO)cc21 [Selumetinib] (first compound max 10 µM, 7x7, partner max 10 µM)",0.828,0.934,0.513,0.2,0.873,0.444,0.753,0.379,0.786,0.674,0.47,0.351,0.388,0.425,0.77,0.908,0.712,0.197,0.628,0.672
"COc1cccc2c1C(=O)c1c(O)c3c(c(O)c1C2=O)C[C@@](O)(C(=O)CO)C[C@@H]3O[C@H]1C[C@H](N)[C@H](O)[C@H](C)O1 [Doxorubicin] + Cc1cc2ncnn2cc1Nc1ncc2c(n1)n(C1CCOCC1)c(=O)n2C [AZD7648] (first compound max 1 µM, 7x7, partner max 10 µM)",0.934,0.95,0.949,0.777,0.442,0.337,0.625,0.916,0.508,0.627,0.749,0.452,0.504,0.401,0.963,0.488,0.787,0.872,0.979,0.949
